Experimental data from paper PMC4772116 (Scientific Reports, 2016).
Where a SMILES comes first, the peptide text is derived from it. Bridges are numbered along the chain shown (N, C = ends).

Key:
[1] = molecular target: human α3β4 nAChR (Homo sapiens, UniProt P30926+P32297); assay: cell-based
[2] = molecular target: human α3β2 nAChR (Homo sapiens, UniProt P17787+P32297); assay: cell-based; type: cell-based
[3] = molecular target: Ac-AChBP (Aplysia californica, UniProt Q8WSF8); assay: biochemical; type: binding
Sequence of Ac-AChBP (Q8WSF8 20-236 limits assumed): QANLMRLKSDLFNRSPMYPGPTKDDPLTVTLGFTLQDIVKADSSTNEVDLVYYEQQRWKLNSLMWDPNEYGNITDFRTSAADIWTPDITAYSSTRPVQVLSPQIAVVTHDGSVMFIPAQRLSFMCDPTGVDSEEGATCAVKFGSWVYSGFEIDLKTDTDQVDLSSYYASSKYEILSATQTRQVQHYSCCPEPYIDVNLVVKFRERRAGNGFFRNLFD

Sequence of human α3β2 nAChR (P32297 32-505 limits assumed): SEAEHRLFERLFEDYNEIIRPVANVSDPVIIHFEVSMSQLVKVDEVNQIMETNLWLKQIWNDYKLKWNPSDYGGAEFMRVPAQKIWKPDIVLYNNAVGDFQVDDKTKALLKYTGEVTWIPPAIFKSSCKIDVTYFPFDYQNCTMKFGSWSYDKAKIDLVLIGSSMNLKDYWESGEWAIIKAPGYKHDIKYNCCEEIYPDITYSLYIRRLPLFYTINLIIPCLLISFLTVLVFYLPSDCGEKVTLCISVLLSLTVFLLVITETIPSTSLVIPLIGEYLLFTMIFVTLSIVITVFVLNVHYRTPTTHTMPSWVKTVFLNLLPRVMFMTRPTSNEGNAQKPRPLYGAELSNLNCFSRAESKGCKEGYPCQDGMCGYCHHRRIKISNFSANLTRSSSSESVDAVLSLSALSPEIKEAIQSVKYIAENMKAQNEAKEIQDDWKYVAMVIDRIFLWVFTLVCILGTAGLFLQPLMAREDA
Sequence of human α3β2 nAChR (P17787 26-502 limits assumed): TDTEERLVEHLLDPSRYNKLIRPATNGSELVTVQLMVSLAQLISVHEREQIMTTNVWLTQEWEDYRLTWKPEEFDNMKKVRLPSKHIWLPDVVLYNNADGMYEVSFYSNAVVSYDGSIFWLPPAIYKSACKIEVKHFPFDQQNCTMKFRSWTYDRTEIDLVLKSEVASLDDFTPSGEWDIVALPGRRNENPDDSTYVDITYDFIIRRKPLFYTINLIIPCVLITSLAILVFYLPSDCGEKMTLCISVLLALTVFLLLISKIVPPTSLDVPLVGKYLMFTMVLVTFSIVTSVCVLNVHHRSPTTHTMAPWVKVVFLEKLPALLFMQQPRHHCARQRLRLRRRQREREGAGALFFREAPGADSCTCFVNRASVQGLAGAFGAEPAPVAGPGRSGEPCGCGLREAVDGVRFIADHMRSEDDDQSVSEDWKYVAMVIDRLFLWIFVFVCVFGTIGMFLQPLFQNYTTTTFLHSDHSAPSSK
Sequence of human α3β4 nAChR (P32297 32-505 limits assumed): as the sequence (P32297 32-505 limits assumed) above
Sequence of human α3β4 nAChR (P30926 22-498 limits assumed): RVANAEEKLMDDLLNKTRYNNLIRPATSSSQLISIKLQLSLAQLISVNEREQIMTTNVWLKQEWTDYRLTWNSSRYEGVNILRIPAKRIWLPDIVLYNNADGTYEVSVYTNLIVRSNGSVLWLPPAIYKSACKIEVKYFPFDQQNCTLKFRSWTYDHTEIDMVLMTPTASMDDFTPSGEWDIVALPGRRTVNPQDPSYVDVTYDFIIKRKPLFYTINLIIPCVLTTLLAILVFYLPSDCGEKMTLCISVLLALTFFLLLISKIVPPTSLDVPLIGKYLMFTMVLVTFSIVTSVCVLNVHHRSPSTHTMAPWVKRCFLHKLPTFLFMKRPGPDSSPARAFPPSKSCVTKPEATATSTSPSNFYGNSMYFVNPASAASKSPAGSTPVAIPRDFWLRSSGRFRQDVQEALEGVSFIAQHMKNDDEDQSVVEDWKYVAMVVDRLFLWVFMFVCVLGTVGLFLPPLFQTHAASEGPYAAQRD

In the case of `CC[C@H](C)[C@@H]1NC(=O)[C@H](Cc2c[nH]cn2)NC(=O)[C@H](CCC(N)=O)NC(=O)[C@H](CC(N)=O)NC(=O)[C@H](CC(N)=O)NC(=O)CNC(=O)[C@H](C)NC(=O)[C@@H]2CSSC[C@H](NC(=O)CN)C(=O)N[C@@H](CSSC[C@@H](C(N)=O)NC1=O)C(=O)N[C@@H](CO)C(=O)N[C@@H](C)C(=O)N1CCC[C@H]1C(=O)N[C@@H](C)C(=O)N2` [GIC(H5A)] (H-GCCSAPACAGNNQHIC-NH2; disulfide 2-8, 3-16), the IC50 [1] is reported as greater than 10 µM, the “Decrease in the inhibition of α3β2 nAChR versus wild-type GIC” value [2] is reported as “more than 10,000 fold” and the IC50 [2] is reported as greater than 10 µM. For the same compound, the “Increase in the IC50 value for Ac-AChBP versus wild-type GIC” value [3] was roughly 100 fold.
`CC[C@H](C)[C@@H]1NC(=O)[C@H](Cc2c[nH]cn2)NC(=O)[C@H](CCC(N)=O)NC(=O)[C@H](C)NC(=O)[C@H](CC(N)=O)NC(=O)CNC(=O)[C@H](C)NC(=O)[C@@H]2CSSC[C@H](NC(=O)CN)C(=O)N[C@@H](CSSC[C@@H](C(N)=O)NC1=O)C(=O)N[C@@H](CO)C(=O)N[C@@H](Cc1c[nH]cn1)C(=O)N1CCC[C@H]1C(=O)N[C@@H](C)C(=O)N2` [GIC(N12A)] (H-GCCSHPACAGNAQHIC-NH2; disulfide 2-8, 3-16) gave an IC50 [1] greater than 10 µM and an IC50 [2] of 1.98 µM.
With `CC[C@H](C)[C@@H]1NC(=O)[C@H](Cc2c[nH]cn2)NC(=O)[C@H](CCC(N)=O)NC(=O)[C@H](CC(N)=O)NC(=O)[C@H](CC(N)=O)NC(=O)CNC(=O)[C@H](C)NC(=O)[C@@H]2CSSC[C@H](NC(=O)CN)C(=O)N[C@@H](CSSC[C@@H](C(N)=O)NC1=O)C(=O)N[C@@H](CO)C(=O)N[C@@H](Cc1c[nH]cn1)C(=O)N1CCC[C@H]1C(=O)NCC(=O)N2` [GIC(A7G)] (H-GCCSHPGCAGNNQHIC-NH2; disulfide 2-8, 3-16) the IC50 [1] was greater than 10 µM and the IC50 [2] was 4.21 µM.
With `CC[C@H](C)[C@@H]1NC(=O)[C@H](Cc2c[nH]cn2)NC(=O)[C@H](CCC(N)=O)NC(=O)[C@H](CC(N)=O)NC(=O)[C@H](C)NC(=O)CNC(=O)[C@H](C)NC(=O)[C@@H]2CSSC[C@H](NC(=O)CN)C(=O)N[C@@H](CSSC[C@@H](C(N)=O)NC1=O)C(=O)N[C@@H](CO)C(=O)N[C@@H](Cc1c[nH]cn1)C(=O)N1CCC[C@H]1C(=O)N[C@@H](C)C(=O)N2` [GIC(N11A)] (H-GCCSHPACAGANQHIC-NH2; disulfide 2-8, 3-16) the IC50 [1] was greater than 10 µM and the IC50 [2] was 1.6 µM.
Work on `CC[C@H](C)[C@@H]1NC(=O)[C@H](Cc2c[nH]cn2)NC(=O)[C@H](C)NC(=O)[C@H](CC(N)=O)NC(=O)[C@H](CC(N)=O)NC(=O)CNC(=O)[C@H](C)NC(=O)[C@@H]2CSSC[C@H](NC(=O)CN)C(=O)N[C@@H](CSSC[C@@H](C(N)=O)NC1=O)C(=O)N[C@@H](CO)C(=O)N[C@@H](Cc1c[nH]cn1)C(=O)N1CCC[C@H]1C(=O)N[C@@H](C)C(=O)N2` [GIC(Q13A)] yielded an IC50 [1] of 0.66 µM and an IC50 [2] of 0.00841 µM.
With `CC[C@H](C)[C@@H]1NC(=O)[C@H](Cc2c[nH]cn2)NC(=O)[C@H](CCC(N)=O)NC(=O)[C@H](CC(N)=O)NC(=O)[C@H](CC(N)=O)NC(=O)CNC(=O)[C@H](C)NC(=O)[C@@H]2CSSC[C@H](NC(=O)CN)C(=O)N[C@@H](CSSC[C@@H](C(N)=O)NC1=O)C(=O)N[C@@H](CO)C(=O)N[C@@H](Cc1c[nH]cn1)C(=O)N1CCC[C@H]1C(=O)N[C@@H](CC(C)C)C(=O)N2` [GIC(A7L)] (H-GCCSHPLCAGNNQHIC-NH2; disulfide 2-8, 3-16) the IC50 [1] was greater than 10 µM, the “Decrease in the inhibition of α3β2 nAChR versus wild-type GIC” value [2] was “more than 10,000 fold” and the IC50 [2] was greater than 10 µM.
